Several values for one entry are separate records, joined by “and”; a condition that tells them apart may be missing. Equal values may be shown once.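 The compound was tested at five concentrations on cells cultured in 96-well plates, with a 48-hour exposure period. GI50: concentration for 50% inhibition of growth. Definition used: TGI = concentration required for complete inhibition of growth.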
What was measured:
Assay in all cases: growth of human tumour cells (NCI), 48 h
HOP-62 NSCLC = test system: HOP-62 NSCLC
ACHN renal = test system: ACHN renal
SNB-75 CNS = test system: SNB-75 CNS
SK-OV-3 ovarian = test system: SK-OV-3 ovarian
IGROV1 ovarian = test system: IGROV1 ovarian
NCI-H460 lung = test system: NCI-H460 lung
SR leukemia = test system: SR leukemia
HCT-116 colon = test system: HCT-116 colon
SK-MEL-5 melanoma = test system: SK-MEL-5 melanoma
RXF 393 renal = test system: RXF 393 renal

Compound | GI50 (HOP-62 NSCLC) | TGI (HOP-62 NSCLC) | GI50 (ACHN renal) | TGI (ACHN renal) | GI50 (SNB-75 CNS) | TGI (SNB-75 CNS) | GI50 (SK-OV-3 ovarian) | TGI (SK-OV-3 ovarian) | GI50 (IGROV1 ovarian) | TGI (IGROV1 ovarian) | GI50 (NCI-H460 lung) | TGI (NCI-H460 lung) | GI50 (SR leukemia) | TGI (SR leukemia) | GI50 (HCT-116 colon) | TGI (HCT-116 colon) | GI50 (SK-MEL-5 melanoma) | TGI (SK-MEL-5 melanoma) | GI50 (RXF 393 renal) | TGI (RXF 393 renal)
Cc1nn2c(/C=C3/C(=O)Nc4ccc(Cl)cc43)c(-c3ccccc3)nc2s1 | 2.01 µM | 3.99 µM | 2.96 µM | 14.4 µM | 1.19 µM | 2.69 µM | 2.25 µM | 5.03 µM | 1.51 µM | 10.2 µM | 3.18 µM | 11.7 µM | 3.5 µM | > 100 µM | 1.9 µM | 4.61 µM | 4.07 µM | 23.2 µM | 1.91 µM | 4.71 µM
COc1ccc2nc(NC(=O)C(=O)CC(=O)c3ccc(Cl)cc3)sc2c1 |  | > 100 µM |  | > 100 µM |  | 99.1 µM |  | > 100 µM |  | > 100 µM |  | > 100 µM |  | > 100 µM |  | > 100 µM |  | > 100 µM |  | > 100 µM
COc1cc2c(OC)c(c1)CCCC1=CC(=O)C=C(CCC2)C1=O |  | > 100 µM |  | > 100 µM |  | > 100 µM |  | > 100 µM |  | > 100 µM |  | > 100 µM |  | > 56.5 µM |  | 38.1 µM |  | > 100 µM |  | 76.7 µM
COc1ccc(/C=C(\C#N)c2cc(OC)c3c(c2)OCO3)cc1 | < 0.0125 µM | 24.1 µM | 0.0449 µM | 67.7 µM | 0.0102 µM |  | < 0.0111 µM | 0.458 µM | 0.0212 µM | 32 µM | < 0.01 µM | 4.28 µM | < 0.01 µM | > 100 µM | < 0.0121 µM | 4.39 µM | 0.0101 µM | 0.245 µM | < 0.01 µM | 30.6 µM
COc1cc(-c2cn(-c3ccc(Cl)cc3)c(=O)[nH]2)cc(OC)c1OC | > 100 µM | > 100 µM | > 100 µM | > 100 µM | > 100 µM | > 100 µM | > 100 µM | > 100 µM | > 100 µM | > 100 µM | > 100 µM | > 100 µM | 0.034 µM | 39.1 µM | > 100 µM | > 100 µM | > 100 µM | > 100 µM | > 100 µM | > 100 µM
CCC(C)/C=C(C)/C=C/C(=O)c1c(O)c(-c2ccc(O)cc2)c[nH]c1=O (stereo not drawn) | 4.2 µM | 16.3 µM | 3.53 µM | 14.2 µM | 3.3 µM | 14.3 µM | 6.32 µM | 29.4 µM | 2.59 µM | 15 µM | 3.04 µM | 8.82 µM | 2.39 µM | 6.49 µM | 3.39 µM | 13.1 µM | 4.29 µM | 16.7 µM | 1.96 µM | 6.97 µM
CCc1ccc(CCC(=O)Nc2ncc(Cc3ccccc3)s2)o1 | 2.91 µM | > 100 µM | 5.68 µM | > 100 µM | 1.24 µM | > 100 µM | 2.81 µM | > 100 µM | 3.24 µM | > 100 µM | 3.06 µM | > 100 µM | 0.444 µM | > 100 µM | 1.05 µM | > 100 µM | 1.16 µM | > 100 µM | 2.45 µM | 9.13 µM
Cc1ccc(NS(=O)(=O)c2cc(C)ccc2C)cc1 | 4.49 µM | > 100 µM | 12.7 µM | 90 µM | 3.15 µM | 24.8 µM | 3.68 µM | 21.3 µM | 7.02 µM | > 100 µM | 3.4 µM | 13.5 µM | 1.18 µM | 16.5 µM | 3.55 µM | 20.4 µM | 2.79 µM | 13.8 µM | 2.9 µM | 16.7 µM
Cc1cc(-c2nc3ccc(O)cc3s2)ccc1N | 31.1 µM | > 100 µM | 53.9 µM | > 100 µM | 15.8 µM | 71 µM | 36.9 µM | > 100 µM | 47.5 µM | > 100 µM | 38.9 µM | > 100 µM | 22 µM | > 100 µM | 43.9 µM | > 100 µM | 52.1 µM | > 100 µM | 30.5 µM | > 100 µM
Cc1c(C(=O)CC(=O)C(=O)Nc2cccc(C(F)(F)F)c2)[n+](=O)c2ccccc2n1[O-] |  | 57.6 µM |  | 15.9 µM |  | 7.86 µM |  | 50.2 µM |  | 9.34 µM |  | 8.5 µM |  | 8.82 µM |  | 10.2 µM |  | 14 µM |  | 39.5 µM
COc1cc(-c2cc(-c3nc4ccccc4[nH]3)[nH]n2)cc(OC)c1OC | 3.54 µM | 16.7 µM | 2.77 µM | 14.2 µM | 2.83 µM | 12.8 µM | 3.48 µM | 9.74 µM | 2.34 µM | 15.4 µM | 3.64 µM | 21.5 µM | 3.32 µM | > 100 µM | 3.16 µM | 16.8 µM | 1.34 µM | 3.94 µM | 1.77 µM | 11.4 µM
Nc1ncc(-c2ccc(C(F)(F)F)cc2)c(NC2CCCCCC2)n1 | 54.7 µM | > 100 µM | 33.8 µM | > 100 µM | 43.4 µM | > 100 µM | > 100 µM | > 100 µM | 19.5 µM | > 100 µM | 42.7 µM | > 100 µM | 13.2 µM | 57.2 µM | 20.2 µM | > 100 µM | 12.3 µM | 35 µM | 16.1 µM | 88 µM
O=c1[nH]nc2c3c(cccc13)NC(CN1Cc3ccccc3C1)=N2 | 3.2 µM | > 100 µM | 4.92 µM | > 100 µM | 2.77 µM | > 100 µM | 3.11 µM | > 100 µM | 3.87 µM | > 100 µM | 5.25 µM | > 100 µM | 5.13 µM | > 100 µM | 6.77 µM | > 100 µM | 8.42 µM | > 100 µM | 3.79 µM | 74.1 µM
CN(C)CC#Cc1cccc(C(=O)c2cnn(-c3ccc(F)cc3)c2N)c1 | > 25 µM | > 25 µM | > 25 µM | > 25 µM | 19.6 µM | > 25 µM | > 25 µM | > 25 µM | > 21.1 µM | > 25 µM | > 25 µM | > 25 µM | > 18.2 µM | > 25 µM | > 25 µM | > 25 µM | 16.1 µM | > 25 µM | > 25 µM | > 25 µM
CCc1nc2ccc(Cc3ccc(C(=O)NO)cc3)cc2c(=O)n1CCc1ccccc1 | 1.32 µM | 2.86 µM |  |  | 1.41 µM | 3.71 µM | 1.44 µM | 2.88 µM |  |  | 0.52 µM | 2.07 µM | 0.784 µM | 61 µM | 0.388 µM | 1.57 µM | 0.822 µM | 2.1 µM | 0.741 µM | 2.3 µM
COc1cccc(/C=C/C(=O)c2cc3c(N)c(C(=O)Nc4cccc(Cl)c4C)sc3nc2C)c1 | 1.1 µM | 4.64 µM | 0.811 µM | 1.95 µM | 0.679 µM | > 12.1 µM | 2.2 µM | > 50 µM | 0.832 µM | 1.85 µM | 1.38 µM | 4.45 µM | 0.217 µM | > 12.3 µM | 0.605 µM | 1.42 µM | 1 µM | 2.34 µM | 0.573 µM | 1.29 µM
Cc1c(CN2CCC(Nc3ncnc4sc(CC(F)(F)F)cc34)CC2)ccc2c1cc(C#N)n2Cc1cn[nH]c1 | 3.38 µM and 5.46 µM | 22 µM and > 44.6 µM | 4.47 µM and 10.7 µM | 19.5 µM and > 38 µM | 8.38 µM and 2.47 µM | 26.1 µM and 27.7 µM | 10 µM and > 24.1 µM | > 47.4 µM | 5.23 µM and 23.8 µM | 26.1 µM and > 100 µM | 2.19 µM and 2.8 µM | 7.31 µM | 0.571 µM and 1.36 µM | 3.68 µM and 5.19 µM | 1.12 µM and 1.99 µM | 2.4 µM | 0.967 µM and 0.958 µM | 2.61 µM and 3.02 µM | 1.94 µM and 2.74 µM | 12.9 µM and 10.5 µM
O=C(N/N=C/c1ccc(O)cc1O)c1ccc(Nc2ccnc(C(F)(F)F)c2)cc1 |  |  | 31.8 µM | > 100 µM | 3.72 µM | 26.7 µM | 9.67 µM | > 80.1 µM | 21.6 µM | > 100 µM | > 100 µM | > 100 µM | > 100 µM | > 100 µM | 39.1 µM | > 100 µM | > 100 µM | > 100 µM | 17.3 µM | 64.1 µM
CCOC(=O)C(Cc1c[nH]c2cc([N+](=O)[O-])ccc12)(NC(C)=O)C(=O)OCC | 161 µM | 461 µM | 178 µM | > 1000 µM | 93.5 µM and 46.8 µM | 114 µM | 184 µM | > 1000 µM | 176 µM | > 1000 µM |  | > 1000 µM | 26.3 µM | 446 µM | 390 µM | > 1000 µM |  |  | 58.6 µM | 133 µM
c1ccc2[nH]c(-c3ccc(OCCCCCOc4ccc(-c5nc6ccccc6[nH]5)cc4)cc3)nc2c1 | 2.23 µM | 5.15 µM | 3.29 µM | 11.9 µM | 1.91 µM | 3.69 µM | 6.39 µM | 17.5 µM |  |  | 1.6 µM | > 100 µM | 0.241 µM | 0.721 µM | 1.25 µM | 3.87 µM | 1.15 µM | 4.94 µM | 1.48 µM | 3.08 µM
